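Each compound was tested at five concentrations against cells in 96-well plates for 48 hours. The concentration for 50% growth inhibition is given as GI50.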 The source made the active and inactive calls. No stated cut-off is given here; in the data, active = GI50 up to about 1.1 µM and inactive = higher.
Assays:
Assay in all cases: DTP human tumour cell line panel, 48 h
CCRF-CEM = tested on: CCRF-CEM
DU-145 = tested on: DU-145
SW-620 = tested on: SW-620
OVCAR-8 = tested on: OVCAR-8
A549 = tested on: A549
NCI-H23 = tested on: NCI-H23
SK-MEL-2 = tested on: SK-MEL-2
A498 = tested on: A498
OVCAR-5 = tested on: OVCAR-5
NCI/ADR-RES = tested on: NCI/ADR-RES
ACHN = tested on: ACHN
SN12C = tested on: SN12C
LOX IMVI = tested on: LOX IMVI
OVCAR-4 = tested on: OVCAR-4
MDA-MB-231 = tested on: MDA-MB-231
CAKI-1 = tested on: CAKI-1
SNB-19 = tested on: SNB-19
NCI-H460 = tested on: NCI-H460
UACC-62 = tested on: UACC-62
MDA-N = tested on: MDA-N
TK-10 = tested on: TK-10
HT-29 = tested on: HT-29
U-251 = tested on: U-251
M14 = tested on: M14
T47D = tested on: T47D
MOLT-4 = tested on: MOLT-4
UACC-257 = tested on: UACC-257
786-0 = tested on: 786-0
HCT-15 = tested on: HCT-15
SK-MEL-28 = tested on: SK-MEL-28
RXF 393 = tested on: RXF 393
MCF7 = tested on: MCF7
HL-60 = tested on: HL-60
UO-31 = tested on: UO-31
KM12 = tested on: KM12
PC-3 = tested on: PC-3
Malme-3M = tested on: Malme-3M
OVCAR-3 = tested on: OVCAR-3
BT-549 = tested on: BT-549
HCC 2998 = tested on: HCC 2998
NCI-H226 = tested on: NCI-H226
Hs-578T = tested on: Hs-578T
HCT-116 = tested on: HCT-116
MDA-MB-435 = tested on: MDA-MB-435
SR = tested on: SR
SK-OV-3 = tested on: SK-OV-3
COLO 205 = tested on: COLO 205
HOP-62 = tested on: HOP-62
SF-295 = tested on: SF-295
SF-268 = tested on: SF-268
SK-MEL-5 = tested on: SK-MEL-5
K562 = tested on: K562
EKVX = tested on: EKVX
HOP-92 = tested on: HOP-92
NCI-H522 = tested on: NCI-H522
RPMI-8226 = tested on: RPMI-8226
SNB-75 = tested on: SNB-75
IGROV-1 = tested on: IGROV-1
SF-539 = tested on: SF-539

Question: For COc1cc(/C=C2\C(=O)N(Cc3ccccc3)C(c3ccccc3)S2(=O)=O)cc(OC)c1OC (configuration not stated), which GI50 (CCRF-CEM) is on record?
Answer: 36.5 µM (inactive)

Question: What about the GI50 (DU-145) of the same molecule?
Answer: 91.6 µM (inactive)

Question: And the GI50 (SW-620)?
Answer: 79.1 µM (inactive)

Question: And the GI50 (OVCAR-8)?
Answer: 37.2 µM (inactive)

Question: What about the GI50 (A549) of the same molecule?
Answer: 29.9 µM (inactive)

Question: And the GI50 (NCI-H23)?
Answer: 33.4 µM (inactive)

Question: What about the GI50 (SK-MEL-2) of the same molecule?
Answer: 27.1 µM (inactive)

Question: And the GI50 (A498)?
Answer: 21.4 µM (inactive)

Question: What about the GI50 (OVCAR-5) of the same molecule?
Answer: > 100 µM (inactive)

Question: What about the GI50 (NCI/ADR-RES) of the same molecule?
Answer: 27.6 µM (inactive)

Question: What about the GI50 (ACHN) of the same molecule?
Answer: 67.3 µM (inactive)

Question: And the GI50 (SN12C)?
Answer: 74 µM (inactive)

Question: And the GI50 (LOX IMVI)?
Answer: 27.5 µM (inactive)

Question: What about the GI50 (OVCAR-4) of the same molecule?
Answer: 17.5 µM (inactive)

Question: And the GI50 (MDA-MB-231)?
Answer: > 100 µM (inactive)

Question: What about the GI50 (CAKI-1) of the same molecule?
Answer: > 100 µM (inactive)

Question: What about the GI50 (SNB-19) of the same molecule?
Answer: > 100 µM (inactive)

Question: What about the GI50 (NCI-H460) of the same molecule?
Answer: 35.4 µM (inactive)

Question: What about the GI50 (UACC-62) of the same molecule?
Answer: 35.2 µM (inactive)

Question: What about the GI50 (MDA-N) of the same molecule?
Answer: 61.8 µM (inactive)

Question: And the GI50 (TK-10)?
Answer: 36.1 µM (inactive)

Question: And the GI50 (HT-29)?
Answer: 51.6 µM (inactive)

Question: What about the GI50 (U-251) of the same molecule?
Answer: 92.3 µM (inactive)

Question: And the GI50 (M14)?
Answer: 52.7 µM (inactive)

Question: What about the GI50 (T47D) of the same molecule?
Answer: 29.2 µM (inactive)

Question: And the GI50 (MOLT-4)?
Answer: 4.11 µM (inactive)

Question: And the GI50 (UACC-257)?
Answer: 26.2 µM (inactive)

Question: What about the GI50 (786-0) of the same molecule?
Answer: 29.6 µM (inactive)

Question: And the GI50 (HCT-15)?
Answer: 27.5 µM

Question: What about the GI50 (SK-MEL-28) of the same molecule?
Answer: 93.8 µM (inactive)

Question: What about the GI50 (RXF 393) of the same molecule?
Answer: 62.7 µM (inactive)

Question: And the GI50 (MCF7)?
Answer: 26.3 µM (inactive)

Question: What about the GI50 (HL-60) of the same molecule?
Answer: 5.13 µM (inactive)

Question: What about the GI50 (UO-31) of the same molecule?
Answer: 21.8 µM (inactive)

Question: And the GI50 (KM12)?
Answer: 34.7 µM (inactive)

Question: And the GI50 (PC-3)?
Answer: 43 µM (inactive)

Question: What about the GI50 (Malme-3M) of the same molecule?
Answer: 39.9 µM (inactive)

Question: And the GI50 (OVCAR-3)?
Answer: 47.3 µM (inactive)

Question: And the GI50 (BT-549)?
Answer: 36.3 µM (inactive)

Question: And the GI50 (HCC 2998)?
Answer: > 100 µM (inactive)

Question: What about the GI50 (NCI-H226) of the same molecule?
Answer: 50.6 µM (inactive)

Question: What about the GI50 (Hs-578T) of the same molecule?
Answer: 9.73 µM (inactive)

Question: What about the GI50 (HCT-116) of the same molecule?
Answer: 17.6 µM (inactive)

Question: What about the GI50 (MDA-MB-435) of the same molecule?
Answer: 41.9 µM (inactive)

Question: What about the GI50 (SR) of the same molecule?
Answer: 14.3 µM (inactive)

Question: And the GI50 (SK-OV-3)?
Answer: > 100 µM (inactive)

Question: And the GI50 (COLO 205)?
Answer: 21.3 µM (inactive)

Question: What about the GI50 (HOP-62) of the same molecule?
Answer: > 100 µM (inactive)

Question: And the GI50 (SF-295)?
Answer: 27 µM (inactive)

Question: And the GI50 (SF-268)?
Answer: 31.3 µM (inactive)

Question: And the GI50 (SK-MEL-5)?
Answer: 12 µM (inactive)

Question: And the GI50 (K562)?
Answer: 5.12 µM (inactive)

Question: What about the GI50 (EKVX) of the same molecule?
Answer: 17.1 µM (inactive)

Question: And the GI50 (HOP-92)?
Answer: 50.2 µM (inactive)

Question: What about the GI50 (NCI-H522) of the same molecule?
Answer: 14.2 µM (inactive)

Question: Which results are given for COc1ccccc1Nc1nc(N)nc(N)c1N=O?
Answer: GI50 (CCRF-CEM): > 100 µM (inactive); GI50 (RPMI-8226): > 100 µM (inactive); GI50 (DU-145): > 100 µM (inactive); GI50 (SW-620): > 100 µM (inactive); GI50 (OVCAR-8): > 100 µM (inactive); GI50 (A549): > 100 µM (inactive); GI50 (NCI-H23): > 100 µM (inactive); GI50 (SK-MEL-2): > 100 µM (inactive); GI50 (A498): > 100 µM (inactive); GI50 (OVCAR-5): > 100 µM (inactive); GI50 (NCI/ADR-RES): > 100 µM (inactive); GI50 (ACHN): > 100 µM (inactive); GI50 (SN12C): > 100 µM (inactive); GI50 (LOX IMVI): > 100 µM (inactive); GI50 (OVCAR-4): > 100 µM (inactive); GI50 (MDA-MB-231): > 100 µM (inactive); GI50 (SNB-19): > 100 µM (inactive); GI50 (NCI-H460): > 100 µM (inactive); GI50 (UACC-62): > 100 µM (inactive); GI50 (MDA-N): > 100 µM (inactive); GI50 (TK-10): > 100 µM (inactive); GI50 (HT-29): 78.2 µM (inactive); GI50 (U-251): > 100 µM (inactive); GI50 (SNB-75): > 100 µM (inactive); GI50 (M14): 64 µM (inactive); GI50 (T47D): 2.82 µM (inactive); GI50 (MOLT-4): > 100 µM (inactive); GI50 (IGROV-1): 3.91 µM (inactive); GI50 (UACC-257): > 100 µM (inactive); GI50 (786-0): > 100 µM (inactive); GI50 (HCT-15): > 100 µM; GI50 (SK-MEL-28): > 100 µM (inactive); GI50 (RXF 393): > 100 µM (inactive); GI50 (MCF7): > 100 µM (inactive); GI50 (HL-60): > 100 µM (inactive); GI50 (UO-31): > 100 µM (inactive); GI50 (KM12): > 100 µM (inactive); GI50 (SF-539): > 100 µM (inactive); GI50 (PC-3): > 100 µM (inactive); GI50 (Malme-3M): > 100 µM (inactive); GI50 (BT-549): > 100 µM (inactive); GI50 (HCC 2998): > 100 µM (inactive); GI50 (NCI-H226): > 100 µM (inactive); GI50 (Hs-578T): > 100 µM (inactive); GI50 (HCT-116): > 100 µM (inactive); GI50 (MDA-MB-435): > 100 µM (inactive); GI50 (SR): > 100 µM (inactive); GI50 (SK-OV-3): > 100 µM (inactive); GI50 (COLO 205): > 100 µM (inactive); GI50 (HOP-62): > 100 µM (inactive); GI50 (SF-295): > 100 µM (inactive); GI50 (SF-268): > 100 µM (inactive); GI50 (SK-MEL-5): > 100 µM (inactive); GI50 (K562): > 100 µM (inactive); GI50 (EKVX): > 100 µM (inactive); GI50 (HOP-92): > 100 µM (inactive); GI50 (NCI-H522): > 100 µM (inactive)
